Assay results reported in patent US20220142957A1, “TERPENE BASED THERAPEUTIC DEEP EUTECTIC SYSTEM, METHOD OF OBTAINING AND USES THEREOF” (priority 2019, published 2022).

How the values were obtained:
HT29 cells [1] = assay: Antiproliferative assay in HT29 cells (MTS); format: cell-based, human; settings: 24 hours, mean ± SD
Protocol: In one embodiment, human Caco-2 and HT29 cell lines were obtained from Deutsche Sammlung von Mikroorganismen and Zellkulturen (DSMZ, Germany) and American Type Culture Collection (ATCC, USA), respectively. These cell lines were cultured in RPMI 1640 medium supplemented with 10% of heat-inactivated Fetal Bovine Serum (FBS). […] Cells were maintained at 37° C. with 5% CO2 in a humidified incubator and routinely grown as a monolayer in 75 cm^2 culture flasks. The cell culture medium and supplements were purchased from Invitrogen (Gibco, Invitrogen Corporation, UK). In one embodiment, the antiproliferative effect of […] and standard compounds was evaluated in HT29 cells. Briefly, cells were seeded at a density of 1×10^4 cells/well in 96-well culture plates. […] Cells incubated only with culture medium were considered as control. Cell proliferation was measured after 24 hours using MTS reagent, as mentioned above. Results were expressed in terms of percentage of living cells relative to the control. At least three independent experiments were performed in triplicate. In one embodiment, all data were expressed as mean±Standard Deviation (SD).

[2] = Cytotoxicity assay in confluent, non-differentiated Caco-2 cells (MTS); format: cell-based, human; settings: human, confluent, non-differentiated Caco-2 cells, isolated compounds, mean ± SD
Protocol: (§1) The cell culture medium and supplements were purchased from Invitrogen (Gibco, Invitrogen Corporation, UK).
(§2) Cells incubated only with culture medium were considered as control. […] At least three independent experiments were performed in triplicate.
(§3) A p-value<0.05 was considered statistically significant.

HT29 cells [3] = assay: Cell cycle assessment by flow cytometry (propidium iodide); settings: 24 hours, non-cytotoxic concentrations (FIG. 5A)
HT29 cells [4] = assay: Apoptosis by caspase-3 activity (NucView488/MitoView633); format: cell-based, human; settings: 2 mM, 24 hours (FIG. 5B)
Protocol: In one embodiment, apoptosis was evaluated by caspase-3 activity using NucView488™ and MitoView633™ Apoptosis Assay Kit (Biotium, USA) that allows staining of living cells by a far-red fluorescent dye MitoView633™ and the intracellular caspase-3/7 activity and cells nuclei morphological changes by bright green fluorescent dye NucView488™. […] Staining was performed with 200 μL/well of culture medium containing 1 μL of NucView488™ and 1 μL of MitoView633™ for 2 hours. Cells were observed under fluorescence microscope (Leica DM6000, Germany) and image analysis performed using ImageJ software.

Caco-2 cells = assay: Cytotoxicity assay in confluent, non-differentiated Caco-2 cells (MTS); format: cell-based, human; settings: isolated compounds, 24 hours, mean ± SD
Protocol: as §1, §2, §3

EC50 (HT29 cells [1]; Homo sapiens, HT-29, isolated compounds) | Compound | EC50 at 24 h [2] | effect on cell cycle (HT29 cells [3]) | induction of apoptosis via caspase-3 activity (HT29 cells [4]) | EC50 (HT29 cells [1]; isolated compounds) | EC50 (Caco-2 cells)
341 ± 81 µM | CCCCCCCCCC(=O)O [CA, Capric acid] | 1330 ± 223 µM |  |  |  | 
 | CC(C)Cc1ccc(C(C)C(=O)O)cc1 (stereo not shown) [IBU, Ibuprofen] |  | promoted cell cycle arrest in G1-phase |  |  | 
 | S-Limonene |  | promoted cell cycle arrest in G1-phase | capable of inducing apoptosis via caspase-3 activity | 661 ± 25 µM | 2640 ± 108 µM
